Consider two molecules from US20170275344A1, “POLYPEPTIDES AND USES THEREOF AS A DRUG FOR TREATMENT OF AUTOIMMUNE DISORDERS” (Compugen Ltd., priority 2014, published 2017).

Values joined by “and” are separate entries in the source; they are usually repeats but may differ in a detail not shown here. Identical values can stand only once.

For experiment [1], the system named is healthy human skin transplanted onto beige-SCID mice. The experiment in a line: Humanized psoriasis model: healthy human skin xenotransplants on beige-SCID mice injected with psoriatic patients' PBMCs. It counts as in vivo, mouse. The following applies: for Healthy Skin (number of grafts) / Partial Psoriasiform With Tendency Towards Healthy skin (number of grafts) / Psoriasiform Skin (number of affected grafts, histological evaluation) / Total No. of Healthy Grafts (%): 28 days after start of treatment; for Epidermal thickness of grafts, Mean: mean of 9-10 mice, PBS mean 682; for proliferation index (% Ki-67 positive cells) in the xenografted skin: vs vehicle treated group. The text has this:
In this model, psoriasis is induced in xenotransplants of healthy human skin transplanted onto beige severe combined immunodeficiency (SCID) mice followed by intradermal (i.d.) injection of IL-2 enriched Peripheral Blood Mononuclear Cells (PBMCs) isolated from blood of psoriasis patients (Nickoloff, 1995; Wrone-Smith, 1996 Gilhar et al., 2002, 2006, 2011). The activity of these compounds was compared to that of Enbrel, a TNF inhibitor which is an approved biological drug for treatment of psoriasis. As a control for model robustness, we used dexamethasone, a steroid with suppressive effects on inflammatory cytokines and chemokines such as TNF-alpha and interferon-gamma which cause severe psoriasis. All treatments were administered intradermally, except for dexamethasone which was given topically.
Study Protocol: A) Healthy human skin pieces with a width of 0.4 mm and surface area of 1.5×1.5 cm were provided from residual skin of routine plastic surgery procedures from the Plastic Surgery Department of the Rambam Medical Center, Israel. In addition, 20 mL blood samples were taken from psoriatic patients. B) Seventy (70) beige-severe combined immunodeficient mice (SCID) (weight˜20-25 g) were included in this study. Normal healthy human donor skin was transplanted onto the beige-SCID mice as previously described (Nickoloff et al., 1995; Wrone-Smith, 1996; Gilhar et al., 2002, 2006, 2011; Kalish et al., 2009) and the mice were divided into 7 groups. C) Peripheral Blood Mononuclear Cells (PBMCs) isolated from psoriatic patients' blood were cultured in the presence of IL-2 [Prospec, 100 U/mL of RPMI 1640 media, 10% human AB serum (Sigma, St. Louis, Mo.), 1% glutamine, 1% antibiotics (media components; Biological Industries, Kibbutz Beit Haemeck, Israel)] for 14 days, as previously described (Gilhar et al, 2002). D) Four weeks following engraftment, each mouse was injected intra-dermally (i.d.) into the grafted skin lesion, with 1×10^7 activated allogeneic enriched PBMCs from psoriatic patients (FIG. 20). Cells from different psoriasis patients were equally distributed between treatment groups so that each patient is represented in each treatment group. E) On the day of PBMCs injection into the skin grafts, mice were divided randomly into treatment groups (n=9-10 mice per group) and administration of all drugs started (FIG. 20). All tested compounds including the vehicle were given intradermally (intralesional), three times a week, except for dexamethasone which was given topically for 14 consecutive days (Table 3).
F) Twenty eight days after starting the injections and treatment, skin was harvested (FIG. 20). Grafts were analyzed for the following psoriatic parameters by histology: epidermal thickening (acanthosis), suprapapillary epidermal thinning (papillomatosis), hyperkeratosis, parakeratosis, orthokeratosis, agranulosis-hypogranulosis, appearance of neutrophils in the upper spinous layer or in the corneal cell layer—Munro microabscess, regular elongation of rete ridges, angiogenesis, edema and dilated tortuous blood vessels in the dermal papilla and mononuclear cell infiltrate in the papillary dermis. Epidermal thickness was measured as detailed below, and HLA-DR, ICAM-1, Ki-67 and immune infiltrates (anti-CD3 stain) were evaluated by immunohistochemistry (IHC).
The entire skin graft was excised and placed in 10% formal saline overnight. Then, the specimens were place in 70% ethanol and were embedded according to the standard H&E protocol. Histological assessment of the skin grafts was performed by light microscopy and evaluated by two blinded observers [the second observer evaluated random slides (about 25% of all slides) to compare the data obtained by the first observer. […] Epidermal thickness was determined with an ocular micrometer at a minimum of 50 points along the epidermis selected to represent points of maximal and minimal thickness.
Representative grafts were allocated for IHC analysis. […]
(A xenograft is tissue or cells of one species grown in another, often human tumour cells in immunodeficient mice.)

In experiment [2] the test system is PBMCs from MS patients. In words: MS patients' PBMCs: proliferation and cytokine secretion. It counts as cell-based, human. Here is the method: PBMCs were taken from eight MS patients with diagnosed relapsing-remitting disease who have experienced a relapse 1-2 days prior to blood drawing.
PBMCs were plated in a flat-bottom 96-well plate at 1e6 cells/well. The cells were cultured in the presence of anti-CD3 (0.5 ug/ml), MS-specific peptide MBP85-96 (10 ug/ml), or tetanus toxoid peptide TT830-843 (10 ug/ml). C1ORF32 ECD-Fc (SEQ ID NO: 43) or Control Ig were added to the cuture at the indicated concentrations. Two replicate plates were set to study for the effect of C1ORF32 ECD-Fc (SEQ ID NO: 43) on proliferation and on pro-inflammatory and anti-inflammatory cytokines secretion. To test for proliferation, the cultures were pulsed on day +1 of culture with 1 uCi of tritiated thymidine and then harvested 3 days later on day +4 of culture. For cytokine analysis, super natantes from a replicate cultures were collected on day +4 of culture and tested using Millipore multiplex assay.

Experiment [3] relates to co-cultures of TcK and macrophages. In words: TcK : macrophage co-culture, cytokine secretion. It is filed as cell-based, human. How it is done:
• Purified CD4+ cells (2×10^6 cells/ml) are activated for 6 days in complete medium containing IL-15 (100 ng/ml), IL-6 (100 ng/ml) and TNFα (25 ng/ml).
After 6 days in culture, T cells are washed 3 times in complete medium and counted
TcKs are added to macrophage culture following removal of existing culture media at […] (5×10^4 cells/well/CD4+ T cells plus 2×10^5 cells/well CD14^+ Macrophages). C1ORF32 ECD-Fc (SEQ ID NO:43) or Control IgG are added at 1, 3, 10, 30 μg/ml. For additional controls co-cultures are added with vehicle or with medium only (Wennink et al., 2012).
After 24 hrs of culture, cytokines (IL-10, IFN-α, IL-6, IL-12, CCL5, IL-13, IL-15, IL-17, CCL3, GM-CSF, IFNγ, TNFα, IL-1RA, IL-7, IL-1B, eotaxin, IL-2 IL-4 and IL-2R) are analyzed using ELISA and/or Luminex
Co-culture of TcK with autologeuos ex-vivo differentiated macrophages mimics one of the crucial pathways mediating synovial macrophage activation in RA thus serving as a translational tool for evaluating the therapeutic potential of drug candidates. Therefore the effect of C1ORF32 ECD-Fc (SEQ ID NO:43) was tested on the secretion of a range of pro-inflammatory and anti-inflammatory cytokines in such co-cultures. Two studies were carried out, one in which buffy coats from healthy volunteers was used and another study in which the responses of RA patients blood cells responses were compared to that of healthy voluntiers in which blood was used rather than buffy coats.

Where [4] appears, read: PBMCs activated ex-vivo with MBP85-96.
[5] abbreviates: healthy volunteers, 24 hrs co-culture.

Consider `C[C@@H]1C[C@H]2[C@@H]3CCC4=CC(=O)C=C[C@]4(C)[C@@]3(F)[C@@H](O)C[C@]2(C)[C@@]1(O)C(=O)CO` [dexamethasone], for which the “Healthy Skin (number of grafts)” value in experiment [1] is 7/10. For the same molecule, the “Partial Psoriasiform With Tendency Towards Healthy skin (number of grafts)” value in experiment [1] is 1; in experiment [1] (listed as Dexa), 1/10. Moreover, the “Psoriasiform Skin (number of affected grafts, histological evaluation)” value in experiment [1] was 2 and 2/10; in experiment [1] (listed as Dexa), 2/10. Moreover, the “Total No. of Healthy Grafts (%)” value in experiment [1] is listed as 70%. Also, the “Epidermal thickness of graft” value is recorded as 204 μm in experiment [1] (Source of graft (Patient)); 359 μm in experiment [1] (Source of graft (Patient) A); 596 μm in experiment [1] (Source of graft (Patient) B); 183 μm in experiment [1] (Source of graft (Patient) C); 377 μm in experiment [1] (Source of graft (Patient) D); 391 μm in experiment [1] (Source of graft (Patient) E). Further, the “Epidermal thickness of graft” value in experiment [1] (Source of graft (Patient) G1) stood at 266 μm; in experiment [1] (Source of graft (Patient) H) it was 262 μm; in experiment [1] (Source of graft (Patient) K), 289 μm; in experiment [1] (Source of graft (Patient) P) it was 232 μm. Besides, the “Epidermal thickness of grafts, Mean” value in experiment [1] is 315 μm.

On to “C1ORF32 ECD-Fc (SEQ ID NO: 43): fusion protein of human C1ORF32 ECD fused to human immunoglobulin Fc (human-human fusion protein)”, for which the “IFNg, IL-17, TNFa secretion” value in experiment [2] (setting [4]) is “inhibition”. Moreover, the “IL-4, IL-10, TGFβ and IL-6 secretion” value in experiment [2] (setting [4]) is on record as “increase”. The cell proliferation result in experiment [2] (setting [4]) is “inhibition of cells proliferation”. Besides, the “proliferation, or secretion of IFNg, IL-17, and TNFa” value in experiment [2] (absence of activation) is on record as “no effect”. Also, in experiment [2] (absence of activation, in some of the donors), the “IL-10, IL-4, TGFβ and IL-6” value is listed as “elevation”. Also, the TNFa secretion result in experiment [3] (RA patients' (n=2) and healthy volunteers blood (n=1) samples) was “marked inhibition”. For the same molecule, the “IL-10, IL-15, IFNa, IL-7 secretion levels” value in experiment [3] (setting [5]) is “No effect”. The “secretion of IFNg, IL-1RA, IL-17, IL-12, IL-13, IL-6 and IL-2R” value in experiment [3] (setting [5]) is reported as “to a lesser extent also downregulated”. The “secretion of TNFa, CCL5, CCL3, GM-CSF, and IL-5” value in experiment [3] (setting [5]) was “inhibited”. Besides, the “Healthy Skin (number of grafts)” value in experiment [1] was 5/9. Further, in experiment [1], the “Psoriasiform Skin (number of affected grafts, histological evaluation)” value is listed as 4/9. Further, the “Total No. of Healthy Grafts (%)” value in experiment [1] was 55.5% and 55%. Moreover, the “expression of HLA-DR, ICAM-1 and Ki-67 (IHC)” value in experiment [1] (IHC of representative grafts) is recorded as “decreased expression”. Also, the “infiltration of T cells (CD3 positive cells)” value in experiment [1] (IHC, vs PBS treated group) is listed as “decreased infiltration of T cells”. Also, the “proliferation index (% Ki-67 positive cells) in the xenografted skin” value in experiment [1] (IHC) is “trend towards decrease in proliferation index”; in experiment [1] (IHC, listed as C1ORF ECD-Fc (SEQ ID NO:43)), “most pronounced reduction”. In addition, the “Epidermal thickness of graft” value came out at 904 μm in experiment [1] (Source of graft (Patient) A); 397 μm in experiment [1] (Source of graft (Patient) B); 603 μm in experiment [1] (Source of graft (Patient) C); 441 μm in experiment [1] (Source of graft (Patient) D); 335 μm in experiment [1] (Source of graft (Patient) E); 598 μm in experiment [1] (Source of graft (Patient) G1). The “Epidermal thickness of graft” value in experiment [1] (Source of graft (Patient) G2) is on record as 775 μm; in experiment [1] (Source of graft (Patient) H), 253 μm; in experiment [1] (Source of graft (Patient) K) it was 268 μm. The “Epidermal thickness of grafts, Mean” value in experiment [1] amounted to 508 μm. Also, in experiment [1] (one-tailed t-Test, listed as C1ORF ECD-Fc (SEQ ID NO:43)), the “epidermal thickness compared with the vehicle-treated group” value was “significant reduction in epidermal thickness”.
